Experiments:
[1] = pure K1 in solution, direct sunlight; cited from earlier work
[2] = of the apparent concentration in the leaf, cited from earlier work
[3] = Degradation of K1 by sunlight; type: physicochemical; settings: after 4 hours exposure to bright sunlight
Description: Degradation of K1 begins rapidly as soon as photosynthesis ceases and the rate of degradation is directly related to the intensity of UVB. Pure K1 in solution is denatured in 20 minutes in direct sunlight. […] Aside from the degradation of K1, a further problem herbivores have is that the concentration of other fat soluble nutrients such as lutein in green vegetation may be up to 100 times higher than the concentration of vitamin K1. Lutein competes with the absorption and metabolism of vitamin K1 (see Mitchell G. V, Cook K. K., Jenkins M. Y, Grundel E International Journal of Vitamin and Nutrition Research 2001, 71: 30) as well as high levels of Vitamin E (see Tovar A, Ameho C. K. Blumberg J. B., Peterson J. W, Smith D, Booth S. Nutrition And Metabolism 2006, 3:29) and therefore with the combination of UV, the plant matrix and competition with other fat soluble vitamins, the actual amount of vitamin K1 available is much less than quoted or expected. It follows that the vitamin K requirement for animals and humans has been grossly underestimated resulting in vitamin K deficiency.
It is known that Vitamin K1 (K1) is rapidly degraded by sunlight (UV). For vitamin K1 to be a stable component of a vitamin product, it is necessary to protect it using physical and/or chemical means. It was shown that a loss of approximately 20% of K1 occurred after 4 hours exposure to bright sunlight.

For `CC1=C(C/C=C(\C)CCC[C@H](C)CCC[C@H](C)CCCC(C)C)C(=O)c2ccccc2C1=O` [Example K1, Phylloquinone], the “time in which pure K1 is denatured” value [1] is given as 20 min, the “natural bioavailability when consumed with fat” value ([2]; consumed with fat) is given as 15-16% and the natural bioavailability [2] is given as 8-10%. The “loss of K1” value [3] was “approximately 20%”.

Source: patent US8999962B2, “Method for increasing bone density and/or reducing any osteochondral defects in an animal and a composition including vitamin K” (priority 2008, dated 2015)
